In patent EP3368040B1, “METHODS AND COMPOSITIONS FOR RECOVERY FROM STROKE” (Eip Pharma, LLC, priority 2015, dated 2017):

Key:
[1] = brain versus blood drug concentration in pre-clinical studies; format: in vivo
rat model of stroke [2] = assay: transient MCAO in rats: forelimb placement test; format: in vivo, Sprague Dawley rats; settings: Week 4 and Week 6; 1.5 and 4.5 mg/kg PO twice a day
Protocol: (§1) Altogether 76 adult male Sprague Dawley rats, purchased from Harlan Laboratories, (Israel), and weighing 300-350 g were used for the experiment. Animals were housed at a standard temperature (20-24°C) and in a light-controlled environment (12 hours light / 12 hours dark) with ad libitum access to food and water. Animals were grouped as follows: • Group 1M: 20 tMCAO animals treated twice-a-day with vehicle from Day 3 (day 1 being day of stroke surgery) to Day 42 (via PO gavage) • Group 2M: 22 tMCAO animals treated twice-a-day with VX-745 (1.5 mg/kg) from Day 3 (day 1 being day of stroke surgery) to Day 42 (via PO gavage) • Group 3M: 21 tMCAO animals treated twice-a-day with VX-745 (4.5 mg/kg) from Day 3 (day 1 being day of stroke surgery) to Day 42 (via PO gavage)
Transient middle cerebral artery occlusion was performed according to the method described in R. Schmid-Elsaesser et al., Stroke, 29(10):2162-2170 (1998). The right Common Carotid Artery (CCA) was exposed through a midline neck incision and carefully dissected free from surrounding nerves and fascia - from its bifurcation to the base of the skull. The occipital artery branches of the ECA (External Carotid Artery) were then isolated, and these branches were dissected and coagulated. The ECA was dissected further distally and coagulated along with the terminal lingual and maxillary artery branches, which was then divided. […]

cytokine signaling = settings: relative to IC50 for cytokine production; Alam 2015; cited from earlier work
[3] = transient MCAO in rats: body weight monitoring; format: in vivo, Sprague Dawley rats; settings: through the study; 1.5 and 4.5 mg/kg PO twice a day versus vehicle
Protocol: as §1
Animals were handled at a minimum for three days before the surgery. Baseline measures were taken before stroke was induced. Stroke surgery occurred on Day 1. On Day 2, 24 hours post-stroke surgery, Neuroscore testing was performed. Only animals reaching and exceeding Neuroscore criteria was included in the study. On Days 3-42, treatment with vehicle or VX-745 was administered twice a day for 40 days via PO (oral) gavage for all groups. Behavioral tests for all groups were conducted on weeks 4 and 6. Animals were sacrificed on Day 44 and brains were harvested. […]

IL-1β = assay: transient MCAO in rats: IL-1β ELISA of brain at study termination; format: in vivo, Sprague Dawley rats; settings: study termination (Day 44); right minus left hemisphere; trend to lower concentrations in treated groups
Text: The brains of all animals were harvested on Day 44. Rats were sacrificed by CO2 inhalation. Brains were harvested from all animals in each group, divided to left and right hemisphere, weighed, and snap frozen.
Brains were harvested at study termination. Each brain was dissected into two hemispheres and each hemisphere was weighed and enclosed into tubes marked Left or Right. Each tube was immediately frozen in liquid nitrogen and stored at (-80)°C. The tissues were defrosted and homogenized in 1 ml / 200 mg tissue of 20mM Tris-HCL pH 7.4 containing a protease inhibitor cocktail (50 µl/ml). Samples were centrifuged at 10,000 g for 15 min at 4°. Clear supernatants were aliquoted (150 µl/aliquot) and stored at (-80)°C until EILSA assays were performed. ELISA assay was executed according to kit instructions. Standards and samples were tested in duplicates.
Following study termination, animals were also tested for IL-1β brain levels using the ELISA system (see Figure 8 for standard curves). The variability of the results was too large to allow definitive conclusions. All the results below the Lower Limit of Quantification (LLOQ) were assigned the LLOQ value of 5pg/ml. Then, results for the uninjured left side were subtracted from the results of the right side. The distribution for individual rats is given in the figure below (n=18 in each of the study groups) (Figure 9).

rat model of stroke [4] = assay: transient MCAO in rats: neurological scoring (Neuroscore, mNSS); format: in vivo, Sprague Dawley rats
Protocol: as §1
Transient middle cerebral artery occlusion was performed according to the method described in R. Schmid-Elsaesser et al., Stroke, 29(10):2162-2170 (1998). The right Common Carotid Artery (CCA) was exposed through a midline neck incision and carefully dissected free from surrounding nerves and fascia - from its bifurcation to the base of the skull. The occipital artery branches of the ECA (External Carotid Artery) were then isolated, and these branches were dissected and coagulated. The ECA was dissected further distally and coagulated along with the terminal lingual and maxillary artery branches, which was then divided. The ICA (Internal Carotid Artery) was isolated and carefully separated from the adjacent vagus nerve, and the pterygopalatine artery was ligated close to its origin with a 5-0 nylon suture (SMI, Belgium). Next, a 4-0 silk suture was tied loosely around the mobilized ECA stump, and a 4 cm length of 4-0 monofilament nylon suture (the tip of the suture was blunted by using a flame, and the suture was coated with polylysine, prior to insertion) was inserted through the proximal ECA into the ICA and thence into the circle of Willis, effectively occluding the MCA. The surgical wound was closed and the animals were returned to their cages to recover from anesthesia. […]

rat model of stroke [5] = assay: transient MCAO in rats: body swing test; format: in vivo, Sprague Dawley rats; settings: particularly in the 4.5 mg/kg dose group
Protocol: as §1
(§2) Transient middle cerebral artery occlusion was performed according to the method described in R. Schmid-Elsaesser et al., Stroke, 29(10):2162-2170 (1998). […]
Body Swing Test. […] A swing was recorded whenever the rat moved its head out of the vertical axis to either side. Before attempting another swing, the rat had must return to the vertical position for the next swing to be counted. Twenty (20) total swings were counted. […] Body swing scores were expressed as a percentage of rightward over total swings. […]

[6] = treatment of rheumatoid arthritis; cited from earlier work
rat model of stroke [7] = assay: transient MCAO in rats: stepping test; format: in vivo, Sprague Dawley rats; settings: Week 4 up to Week 6; 1.5 and 4.5 mg/kg PO twice a day
Protocol: as §1, §2
Stepping Test. […] The animal was held with its hind limbs fixed in one hand and the forelimb, not to be monitored, in the other, while the unrestrained fore-paw touches the table. The number of adjusting steps were counted while the animal was moved sideways along the table surface (85 cm during approximately five seconds), in the forehand & backhand direction for both forelimbs. […]

cytokine production = settings: inhibition of cytokine production; cited from earlier work
[8] = transient MCAO in rats: mortality and clinical signs; format: in vivo
Protocol: Animals were handled at a minimum for three days before the surgery. Baseline measures were taken before stroke was induced. Stroke surgery occurred on Day 1. On Day 2, 24 hours post-stroke surgery, Neuroscore testing was performed. Only animals reaching and exceeding Neuroscore criteria was included in the study. […] Behavioral tests for all groups were conducted on weeks 4 and 6. Animals were sacrificed on Day 44 and brains were harvested.

animal models of stroke = settings: administered 24-hours after stroke; Piao et al. 2003; cited from earlier work

Row | Compound | drug concentrations in the brain compared with the blood [1] | forelimb placement test, sensory motor improvement versus vehicle treated control group (rat model of stroke [2]) | IC50 for inhibition of cytokine signaling (cytokine signaling) | body weight, differences between groups [3] | IL-1β levels in the brain, differences between groups (IL-1β) | neuroscore, difference between the two doses (rat model of stroke [4]; 1.5 mg/kg versus 4.5 mg/kg PO twice a day (Figure 2)) | neuroscore delta (change from Day 2 to actual Week) versus vehicle treated control group (rat model of stroke [4]; Week 4 or Week 6, 1.5 and 4.5 mg/kg PO twice a day, Day 3 to Day 42) | absolute neuroscore versus vehicle treated control group (rat model of stroke [4]; Weeks 4 and 6, 1.5 and 4.5 mg/kg PO twice a day, Day 3 to Day 42, start 48 hours after reperfusion) | body swing test, outcome (rat model of stroke [5]) | mean blood concentration [6] | stepping test, sensory motor deficit (number of steps, left forelimb) versus vehicle treated control group (rat model of stroke [7]) | whole blood IC50 (cytokine production) | rats that died after treatment initiation ([8]; 1.5 mg/kg group (2M), within two weeks of treatment initiation) | general clinical signs, differences between groups ([8]; 1.5 and 4.5 mg/kg PO twice a day versus vehicle) | effect on recovery from neurologic deficit (animal models of stroke)
1 | O=c1ncn2nc(Sc3ccc(F)cc3F)ccc2c1-c1c(Cl)cccc1Cl [VX-745] | approximately two-fold | Statistically significant differences | half that for cytokine production | No statistically significant differences | No statistically significant differences | statistically significant difference | statistically significant difference | statistically significant difference | near normalization | approximately 75 ng/mL | Statistically significant differences | 0.065 to 0.08 µg/mL | one | no observed differences | 
2 | C[S+]([O-])c1ccc(-c2nc(-c3ccc(F)cc3)c(-c3ccncc3)[nH]2)cc1 (stereo not drawn) [SB203850] |  |  |  |  |  |  |  |  |  |  |  |  |  |  | no significant effect
